Data as given in patent US20260347364A1, “PYRAZOLO[4,3-F]QUINAZOLINE DERIVATIVES AS MODULATORS OF G12D MUTANT KRAS USEFUL FOR THE TREATMENT OF CANCER” (JAZZ PHARMACEUTICALS IRELAND LTD., priority 2023, published 2026).

Assays:
KRAS G12D = molecular target: T1, KRAS G12D (Homo sapiens, UniProt P01116, G12D); experiment: HTRF nucleotide exchange assay, KRAS G12D; format: biochemical; conditions: HTRF nucleotide exchange assay (NEA), class symbols
T1 construct: aa1-188 KRAS WT, HRAS WT, NRAS WT, or KRAS containing the G12D
T1 sequence (P01116 1-188 isoform P01116-2 G12D): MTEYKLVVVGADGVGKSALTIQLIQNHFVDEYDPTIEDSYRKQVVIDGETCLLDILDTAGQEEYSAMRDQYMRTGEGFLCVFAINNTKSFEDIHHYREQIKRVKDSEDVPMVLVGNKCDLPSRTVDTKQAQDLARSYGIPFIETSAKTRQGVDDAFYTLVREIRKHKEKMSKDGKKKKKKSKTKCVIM

KRAS WT = molecular target: T2, KRAS WT (Homo sapiens, UniProt P01116); experiment: HTRF nucleotide exchange assay, KRAS WT; format: biochemical; conditions: class symbols; for IC50: HTRF nucleotide exchange assay (NEA)
T2 construct: aa1-188 KRAS WT
T2 sequence (P01116 1-188 isoform P01116-2): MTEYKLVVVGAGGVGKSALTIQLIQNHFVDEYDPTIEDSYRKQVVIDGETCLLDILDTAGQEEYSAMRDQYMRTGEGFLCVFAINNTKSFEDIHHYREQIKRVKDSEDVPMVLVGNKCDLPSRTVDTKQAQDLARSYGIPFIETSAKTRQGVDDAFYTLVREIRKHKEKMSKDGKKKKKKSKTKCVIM

Q: How did the IC50 (KRAS G12D) turn out when `CCc1c(F)ccc2cc(O)cc(-c3c(F)c4nc(OC[C@@]56CCCN5C[C@H](F)C6)nc(N5CCCC(C#N)C5)c4c4cn(C)nc34)c12` (stereo partly drawn) [Example 176, 1-[4-(8-ethyl-7-fluoro-3-hydroxy-1-naphthyl)-5-fluoro-2-methyl-7-[[(2R,8S)-2-fluoro-1,2,3,5,6,7-hexahydropyrrolizin-8-yl]methoxy]pyrazolo[4,3-f]quinazolin-9-yl]piperidine-3-carbonitrile] was run?
A: ≤ 0.01 µM

Q: And the IC50 (KRAS WT)?
A: ≤ 0.01 µM

Q: With `CCc1c(F)ccc2cc(O)cc(-c3c(C)c4nc(OC[C@@]56CCCN5C[C@H](F)C6)nc(N5CCCn6nc(C(=O)N7CCOCC7)cc6C5)c4c4cn(C)nc34)c12` [Example 209, [5-[4-(8-ethyl-7-fluoro-3-hydroxy-1-naphthyl)-7-[[(2R,8S)-2-fluoro-1,2,3,5,6,7-hexahydropyrrolizin-8-yl]methoxy]-2,5-dimethyl-pyrazolo[4,3-f]quinazolin-9-yl]-4,6,7,8-tetrahydropyrazolo[1,5-a][1,4]diazepin-2-yl]-morpholino-methanone] as the molecule, how does the IC50 (KRAS G12D) read?
A: ≤ 0.01 µM

Q: And the IC50 (KRAS WT)?
A: ≤ 0.01 µM

Q: What does the source list for `C#CC1(O)CCCN(c2nc(OC[C@@]34CCCN3C[C@H](F)C4)nc3cc(-c4cc(O)cc5ccc(F)c(CC)c45)c4nn(C)cc4c23)C1` (stereo partly drawn) [Example 129, 1-[4-(8-ethyl-7-fluoro-3-hydroxy-1-naphthyl)-2-methyl-7-[[(2R,8S)-2-fluoro-1,2,3,5,6,7-hexahydropyrrolizin-8-yl]methoxy]pyrazolo[4,3-f]quinazolin-9-yl]-3-ethynyl-piperidin-3-ol]?
A: IC50 (KRAS G12D): 0.01 to 0.1 µM; IC50 (KRAS WT): 0.01 to 0.1 µM

Q: For `CCc1c(F)ccc2cc(O)cc(-c3c(C)c4nc(OCC56CCCN5CCC6)nc(N5CCC[C@@](C)(O)C5)c4c4cn(C)nc34)c12` [Example 205, (3R)-1-[4-(8-ethyl-7-fluoro-3-hydroxy-1-naphthyl)-7-(1,2,3,5,6,7-hexahydropyrrolizin-8-ylmethoxy)-2,5-dimethyl-pyrazolo[4,3-f]quinazolin-9-yl]-3-methyl-piperidin-3-ol], which IC50 (KRAS G12D) is on record?
A: ≤ 0.01 µM

Q: What about the IC50 (KRAS WT) of the same molecule?
A: ≤ 0.01 µM

Q: What does the source list for `CCc1c(F)ccc2cc(O)cc(-c3c(F)c4nc(OCC5(C#N)CCOC5)nc(N5CCOCC(C)(O)C5)c4c4cn(C)nc34)c12` (stereo not drawn) [Example 164, 3-[[4-(8-ethyl-7-fluoro-3-hydroxy-1-naphthyl)-5-fluoro-9-(6-hydroxy-6-methyl-1,4-oxazepan-4-yl)-2-methyl-pyrazolo[4,3-f]quinazolin-7-yl]oxymethyl]tetrahydrofuran-3-carbonitrile]?
A: IC50 (KRAS G12D): ≤ 0.01 µM; IC50 (KRAS WT): 0.01 to 0.1 µM

Q: With `CCNC(=O)c1cc2n(n1)CCCN(c1nc(OC[C@@]34CCCN3C[C@H](F)C4)nc3cc(-c4cc(O)cc5ccc(F)c(CC)c45)c4nn(C)cc4c13)C2` [Example 21, N-ethyl-5-[4-(8-ethyl-7-fluoro-3-hydroxy-1-naphthyl)-2-methyl-7-[[(2R,8S)-2-fluoro-1,2,3,5,6,7-hexahydropyrrolizin-8-yl]methoxy]pyrazolo[4,3-f]quinazolin-9-yl]-4,6,7,8-tetrahydropyrazolo[1,5-a][1,4]diazepine-2-carboxamide] as the molecule, how does the IC50 (KRAS G12D) read?
A: ≤ 0.01 µM

Q: And the IC50 (KRAS WT)?
A: ≤ 0.01 µM

Q: What does the source list for `CCc1c(F)ccc2cc(O)cc(-c3c(F)c4nc(OCC5(C)CC(O)CN5)nc(N5CCOCC(C)(O)C5)c4c4cn(C)nc34)c12` (stereo not drawn) [Example 152, 4-[4-(8-ethyl-7-fluoro-3-hydroxy-1-naphthyl)-5-fluoro-7-[(4-hydroxy-2-methyl-pyrrolidin-2-yl)methoxy]-2-methyl-pyrazolo[4,3-f]quinazolin-9-yl]-6-methyl-1,4-oxazepan-6-ol]?
A: IC50 (KRAS G12D): ≤ 0.01 µM; IC50 (KRAS WT): ≤ 0.01 µM

Q: With `CCc1c(F)ccc2cc(O)cc(-c3c(F)c4nc(OCC5(CN6CCC(F)(F)CC6)CC5)nc(N5CCOCC(C)(O)C5)c4c4cn(C)nc34)c12` (stereo not drawn) [Example 229, 4-[7-[[1-[(4,4-difluoro-1-piperidyl)methyl]cyclopropyl]methoxy]-4-(8-ethyl-7-fluoro-3-hydroxy-1-naphthyl)-5-fluoro-2-methyl-pyrazolo[4,3-f]quinazolin-9-yl]-6-methyl-1,4-oxazepan-6-ol] as the molecule, how does the IC50 (KRAS G12D) read?
A: ≤ 0.01 µM

Q: And the IC50 (KRAS WT)?
A: ≤ 0.01 µM

Q: What does the source list for `CCc1c(F)ccc2cc(O)cc(-c3cc4nc(OCC5CCCN(C)C5)nc(N5CCCOCC5)c4c4cn(C)nc34)c12` (stereo not drawn) [Example 32, 5-ethyl-6-fluoro-4-[2-methyl-7-[(1-methyl-3-piperidyl)methoxy]-9-(1,4-oxazepan-4-yl)pyrazolo[4,3-f]quinazolin-4-yl]naphthalen-2-ol]?
A: IC50 (KRAS G12D): 0.1 to 10 µM; IC50 (KRAS WT): 0.1 to 10 µM

Q: How did the IC50 (KRAS G12D) turn out when `CCc1c(F)ccc2cc(O)cc(-c3c(F)c4nc(OC[C@@]56CCCN5C[C@H](F)C6)nc(N5CCOCC(C)(O)C5)c4c4cn(C)nc34)c12` (stereo partly drawn) [Example 92, 4-[4-(8-ethyl-7-fluoro-3-hydroxy-1-naphthyl)-5-fluoro-2-methyl-7-[[(2R,8S)-2-fluoro-1,2,3,5,6,7-hexahydropyrrolizin-8-yl]methoxy]pyrazolo[4,3-f]quinazolin-9-yl]-6-methyl-1,4-oxazepan-6-ol] was run?
A: ≤ 0.01 µM

Q: And the IC50 (KRAS WT)?
A: ≤ 0.01 µM

Q: With `CCc1c(F)ccc2cc(O)cc(-c3c(C)c4nc(OC[C@@]56CCCN5C[C@H](F)C6)nc(N5CCC[C@@](C)(O)C5)c4c4cn(C)nc34)c12` [Example 95, (3R)-1-[4-(8-ethyl-7-fluoro-3-hydroxy-1-naphthyl)-2,5-dimethyl-7-[[(2R,8S)-2-fluoro-1,2,3,5,6,7-hexahydropyrrolizin-8-yl]methoxy]pyrazolo[4,3-f]quinazolin-9-yl]-3-methyl-piperidin-3-ol] as the molecule, how does the IC50 (KRAS G12D) read?
A: ≤ 0.01 µM

Q: What about the IC50 (KRAS WT) of the same molecule?
A: ≤ 0.01 µM

Q: For `Cn1cc2c(n1)c(-c1cc(O)cc3ccc(F)c(F)c13)cc1nc(OC[C@@]34CCCN3C[C@H](F)C4)nc(N3CCCOCC3)c12` [Example 39], which IC50 (KRAS G12D) is on record?
A: 0.01 to 0.1 µM

Q: And the IC50 (KRAS WT)?
A: 0.01 to 0.1 µM

Q: How did the IC50 (KRAS G12D) turn out when `CCc1c(F)ccc2cc(O)cc(-c3c(F)c4nc(OCC5(CN6CCC(CC#N)CC6)CC5)nc(N5CCOCC(C)(O)C5)c4c4cn(C)nc34)c12` (stereo not drawn) [Example 225, 2-[1-[[1-[[4-(8-ethyl-7-fluoro-3-hydroxy-1-naphthyl)-5-fluoro-9-(6-hydroxy-6-methyl-1,4-oxazepan-4-yl)-2-methyl-pyrazolo[4,3-f]quinazolin-7-yl]oxymethyl]cyclopropyl]methyl]-4-piperidyl]acetonitrile] was run?
A: ≤ 0.01 µM

Q: And the IC50 (KRAS WT)?
A: ≤ 0.01 µM

Q: Which IC50 (KRAS G12D) does the source give for `CCc1c(F)ccc2cc(O)cc(-c3c(F)c4nc(OCC5(CN6CC7CC7C6)CC5)nc(N5CCOCC(C)(O)C5)c4c4cn(C)nc34)c12` (stereo not drawn) [Example 221, 4-[7-[[1-(3-azabicyclo[3.1.0]hexan-3-ylmethyl)cyclopropyl]methoxy]-4-(8-ethyl-7-fluoro-3-hydroxy-1-naphthyl)-5-fluoro-2-methyl-pyrazolo[4,3-f]quinazolin-9-yl]-6-methyl-1,4-oxazepan-6-ol] here?
A: ≤ 0.01 µM

Q: What about the IC50 (KRAS WT) of the same molecule?
A: ≤ 0.01 µM

Q: What does the source list for `CCc1c(F)ccc2cc(O)cc(-c3c(F)c4nc(OC[C@@H]5CCCN5C)nc(N5CCOCC(C)(O)C5)c4c4cn(C)nc34)c12` (stereo partly drawn) [Example 154, 4-[4-(8-ethyl-7-fluoro-3-hydroxy-1-naphthyl)-5-fluoro-2-methyl-7-[[(2S)-1-methylpyrrolidin-2-yl]methoxy]pyrazolo[4,3-f]quinazolin-9-yl]-6-methyl-1,4-oxazepan-6-ol]?
A: IC50 (KRAS G12D): ≤ 0.01 µM; IC50 (KRAS WT): ≤ 0.01 µM

Q: With `CN(C)C(=O)c1cc2n(n1)CCCN(c1nc(OC[C@@]34CCCN3C[C@H](F)C4)nc3cc(-c4cc(O)ccc4C(F)(F)F)c4nn(C)cc4c13)C2` (racemic) [Example 64, 5-[4-[5-hydroxy-2-(trifluoromethyl)phenyl]-2-methyl-7-[[rac-(2R,8S)-2-fluoro-1,2,3,5,6,7-hexahydropyrrolizin-8-yl]methoxy]pyrazolo[4,3-f]quinazolin-9-yl]-N,N-dimethyl-4,6,7,8-tetrahydropyrazolo[1,5-a][1,4]diazepine-2-carboxamide] as the molecule, how does the IC50 (KRAS G12D) read?
A: 0.01 to 0.1 µM

Q: And the IC50 (KRAS WT)?
A: 0.1 to 10 µM

Q: For `CCc1c(F)ccc2cc(O)cc(-c3cc4nc(OC[C@@]56CCCN5C[C@H](F)C6)nc(N5CCC(C)C(O)C5)c4c4cn(C)nc34)c12` (stereo partly drawn) [Example 133, 1-[4-(8-ethyl-7-fluoro-3-hydroxy-1-naphthyl)-2-methyl-7-[[(2R,8S)-2-fluoro-1,2,3,5,6,7-hexahydropyrrolizin-8-yl]methoxy]pyrazolo[4,3-f]quinazolin-9-yl]-4-methyl-piperidin-3-ol], which IC50 (KRAS G12D) is on record?
A: 0.01 to 0.1 µM

Q: What about the IC50 (KRAS WT) of the same molecule?
A: 0.1 to 10 µM

Q: With `CCc1c(F)ccc2cc(O)cc(-c3cc4nc(OC[C@@]56CCCN5C[C@H](F)C6)nc(N5CCCC(O)(C(C)C)C5)c4c4cn(C)nc34)c12` (stereo partly drawn) [Example 134, 1-[4-(8-ethyl-7-fluoro-3-hydroxy-1-naphthyl)-2-methyl-7-[[(2R,8S)-2-fluoro-1,2,3,5,6,7-hexahydropyrrolizin-8-yl]methoxy]pyrazolo[4,3-f]quinazolin-9-yl]-3-isopropyl-piperidin-3-ol] as the molecule, how does the IC50 (KRAS G12D) read?
A: 0.1 to 10 µM

Q: What about the “KRAS^WT NEA” value (KRAS WT) of the same molecule?
A: D (<49% inhibition at 10 μM)

Q: How did the IC50 (KRAS G12D) turn out when `CCc1c(F)ccc2cc(O)cc(-c3c(F)c4nc(OCC5(C)CC(OC)CN5)nc(N5CCOCC(C)(O)C5)c4c4cn(C)nc34)c12` (stereo not drawn) [Example 151, 4-[4-(8-ethyl-7-fluoro-3-hydroxy-1-naphthyl)-5-fluoro-7-[(4-methoxy-2-methyl-pyrrolidin-2-yl)methoxy]-2-methyl-pyrazolo[4,3-f]quinazolin-9-yl]-6-methyl-1,4-oxazepan-6-ol] was run?
A: ≤ 0.01 µM

Q: And the IC50 (KRAS WT)?
A: ≤ 0.01 µM

Q: Which results are given for `CCc1c(F)ccc2cc(O)cc(-c3c(F)c4nc(OC[C@@]56CCCN5C[C@H](F)C6)nc(N5CCC[C@@H](O)C5)c4c4cn(C)nc34)c12` [Example 178, (3R)-1-[4-(8-ethyl-7-fluoro-3-hydroxy-1-naphthyl)-5-fluoro-2-methyl-7-[[(2R,8S)-2-fluoro-1,2,3,5,6,7-hexahydropyrrolizin-8-yl]methoxy]pyrazolo[4,3-f]quinazolin-9-yl]piperidin-3-ol]?
A: IC50 (KRAS G12D): ≤ 0.01 µM; IC50 (KRAS WT): ≤ 0.01 µM

Q: Which IC50 (KRAS G12D) does the source give for `CCc1c(F)ccc2cc(O)cc(-c3c(F)c4nc(OC[C@@]56CCCN5C[C@H](F)C6)nc(N5CCOC[C@](C)(O)C5)c4c4cn(C)nc34)c12` [Example 110, (6R)-4-[4-(8-ethyl-7-fluoro-3-hydroxy-1-naphthyl)-5-fluoro-2-methyl-7-[[(2R,8S)-2-fluoro-1,2,3,5,6,7-hexahydropyrrolizin-8-yl]methoxy]pyrazolo[4,3-f]quinazolin-9-yl]-6-methyl-1,4-oxazpan-6-ol] here?
A: ≤ 0.01 µM

Q: And the IC50 (KRAS WT)?
A: ≤ 0.01 µM
